Test results: patent US20100167956A1, “DNA CHIP FOR DETECTION OF ESCHERICHIA COLI” (MEDIGENES CO., LTD., priority 2007, published 2010)

Legend:
E. coli (ATCC 25922) [1] = assay: Plate count of E. coli in antibiotic-treated cultures; settings: 1st-3rd experiment
E. coli (ATCC 25922) [2] = assay: MIC (minimal inhibitory concentration) test, standard dilution method; assay type: cell-based; settings: Escherichia coli, ATCC25922; E. coli ATCC 25922, standard dilution method
From the text: For the strain, E. coli (ATCC 25922) was used, and for the antibiotic, Ceftriaxone (CJ, Seoul, Korea), to which E. coli has not developed resistance, was used for the sensitivity test.
First, each strain activated by two subcultures was used to estimate the antibiotic sensitivity by MIC (minimal inhibitory concentration) test. For the MIC test, a standard dilution method (Performance Standards for Antimicrobial Susceptibility Testing; Fifteenth Informational Supplement, Clinical and Laboratory Standard Institute, M100-S15, Vol. 25, No. 1, 2005) was used according to CLIS (The Clinical and Laboratory Standards Institute) guidelines.

CO/N=C(\C(=O)N[C@@H]1C(=O)N2C(C(=O)O)=C(CSc3nc(=O)c(=O)[nH]n3C)CS[C@H]12)c1csc(N)n1 [Ceftriaxone]
0.12 µg/mL: MIC (E. coli (ATCC 25922) [2])
0 CFU: CFU (number of bacteria, plate count) (E. coli (ATCC 25922) [1]; EC-1-04: 1 MIC antibiotic, 4 hr) | CFU (number of bacteria, plate count) (E. coli (ATCC 25922) [1]; EC-1-06: 1 MIC antibiotic, 6 hr) | CFU (number of bacteria, plate count) (E. coli (ATCC 25922) [1]; EC-1-12: 1 MIC antibiotic, 12 hr) | CFU (number of bacteria, plate count) (E. coli (ATCC 25922) [1]; EC-1-24: 1 MIC antibiotic, 24 hr) | CFU (number of bacteria, plate count) (E. coli (ATCC 25922) [1]; EC-2-02: 2 MIC antibiotic, 2 hr) | CFU (number of bacteria, plate count) (E. coli (ATCC 25922) [1]; EC-2-04: 2 MIC antibiotic, 4 hr) | CFU (number of bacteria, plate count) (E. coli (ATCC 25922) [1]; EC-2-06: 2 MIC antibiotic, 6 hr) | CFU (number of bacteria, plate count) (E. coli (ATCC 25922) [1]; EC-2-12: 2 MIC antibiotic, 12 hr) | CFU (number of bacteria, plate count) (E. coli (ATCC 25922) [1]; EC-2-24: 2 MIC antibiotic, 24 hr)
